What was measured:
[1] = system: acute lymphoblastic leukemia cell line Jurkat; assay: Cancer cell proliferation inhibitory activity evaluation 2 (CCK-8), Jurkat; format: cell-based; settings: Homo sapiens, 10 μM, 72 hours, CCK-8, read-out: Cancer cell proliferation inhibitory activity Jurkat
Experimental: (§1) In order to identify whether the compounds have anticancer activity, the acute myeloid leukemia cell line U937, the acute lymphoblastic leukemia cell line Jurkat, the gastric cancer cell lines AGS, […], and the human lung cancer cell line A549 were used. The cell line was cultured using RPMI-1640 medium (U937, Jurkat, AGS, A549) or DMEM (Hs746T) medium containing 10% fetal bovine serum. Welgene products were used as the medium, and hyclone products were used for fetal bovine serum, and 1% of antibiotics for cell culture from Gibco were used as the culture medium.

[2] = system: acute myeloid leukemia cell line U937; assay: Cancer cell proliferation inhibitory activity evaluation 2 (CCK-8), U937; format: cell-based; settings: Homo sapiens, U-937; 10 μM, 72 hours, CCK-8 (Table 3); read-out: Cancer cell proliferation inhibitory activity U937
Experimental: as §1

[3] = system: gastric cancer cell line AGS; assay: Cancer cell proliferation inhibitory activity evaluation 2 (CCK-8), AGS; format: cell-based; settings: Homo sapiens; 10 μM, 72 hours, CCK-8; read-out: Cancer cell proliferation inhibitory activity AGS
Experimental: as §1

MLK3 = MLK3 (Homo sapiens (Human), UniProt Q16584); assay: Evaluation of inhibitory activity of enzyme units, MLK3 ([γ-33P]-ATP filter assay); settings: read-out: IC50(nM) MLK3
MLK3, sequence (Q16584 whole entry, looked up): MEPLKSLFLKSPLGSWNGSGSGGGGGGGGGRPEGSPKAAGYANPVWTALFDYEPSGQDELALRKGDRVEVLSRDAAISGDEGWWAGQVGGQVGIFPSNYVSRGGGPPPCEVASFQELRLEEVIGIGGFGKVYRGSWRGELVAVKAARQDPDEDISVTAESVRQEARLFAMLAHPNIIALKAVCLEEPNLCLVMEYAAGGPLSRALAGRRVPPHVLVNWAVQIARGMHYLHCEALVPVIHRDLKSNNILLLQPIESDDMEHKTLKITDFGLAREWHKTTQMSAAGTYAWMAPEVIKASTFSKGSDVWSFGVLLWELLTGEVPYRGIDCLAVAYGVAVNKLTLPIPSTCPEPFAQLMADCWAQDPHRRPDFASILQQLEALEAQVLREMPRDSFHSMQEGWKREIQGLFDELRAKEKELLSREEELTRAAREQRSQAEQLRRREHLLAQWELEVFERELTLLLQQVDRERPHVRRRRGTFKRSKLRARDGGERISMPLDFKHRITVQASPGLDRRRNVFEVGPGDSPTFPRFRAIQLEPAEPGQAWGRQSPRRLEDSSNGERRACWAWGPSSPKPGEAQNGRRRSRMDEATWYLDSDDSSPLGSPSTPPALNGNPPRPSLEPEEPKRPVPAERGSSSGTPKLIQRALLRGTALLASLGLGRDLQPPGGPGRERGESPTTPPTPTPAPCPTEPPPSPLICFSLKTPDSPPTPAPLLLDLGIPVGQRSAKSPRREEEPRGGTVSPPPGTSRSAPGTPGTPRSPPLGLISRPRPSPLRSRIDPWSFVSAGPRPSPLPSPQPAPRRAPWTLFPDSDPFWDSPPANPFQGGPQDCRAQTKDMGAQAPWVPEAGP

MLK1 = MLK1 (Homo sapiens (Human), UniProt P80192); assay: Evaluation of inhibitory activity of enzyme units, MLK1 ([γ-33P]-ATP filter assay); format: biochemical
MLK1, sequence (P80192 whole entry, looked up): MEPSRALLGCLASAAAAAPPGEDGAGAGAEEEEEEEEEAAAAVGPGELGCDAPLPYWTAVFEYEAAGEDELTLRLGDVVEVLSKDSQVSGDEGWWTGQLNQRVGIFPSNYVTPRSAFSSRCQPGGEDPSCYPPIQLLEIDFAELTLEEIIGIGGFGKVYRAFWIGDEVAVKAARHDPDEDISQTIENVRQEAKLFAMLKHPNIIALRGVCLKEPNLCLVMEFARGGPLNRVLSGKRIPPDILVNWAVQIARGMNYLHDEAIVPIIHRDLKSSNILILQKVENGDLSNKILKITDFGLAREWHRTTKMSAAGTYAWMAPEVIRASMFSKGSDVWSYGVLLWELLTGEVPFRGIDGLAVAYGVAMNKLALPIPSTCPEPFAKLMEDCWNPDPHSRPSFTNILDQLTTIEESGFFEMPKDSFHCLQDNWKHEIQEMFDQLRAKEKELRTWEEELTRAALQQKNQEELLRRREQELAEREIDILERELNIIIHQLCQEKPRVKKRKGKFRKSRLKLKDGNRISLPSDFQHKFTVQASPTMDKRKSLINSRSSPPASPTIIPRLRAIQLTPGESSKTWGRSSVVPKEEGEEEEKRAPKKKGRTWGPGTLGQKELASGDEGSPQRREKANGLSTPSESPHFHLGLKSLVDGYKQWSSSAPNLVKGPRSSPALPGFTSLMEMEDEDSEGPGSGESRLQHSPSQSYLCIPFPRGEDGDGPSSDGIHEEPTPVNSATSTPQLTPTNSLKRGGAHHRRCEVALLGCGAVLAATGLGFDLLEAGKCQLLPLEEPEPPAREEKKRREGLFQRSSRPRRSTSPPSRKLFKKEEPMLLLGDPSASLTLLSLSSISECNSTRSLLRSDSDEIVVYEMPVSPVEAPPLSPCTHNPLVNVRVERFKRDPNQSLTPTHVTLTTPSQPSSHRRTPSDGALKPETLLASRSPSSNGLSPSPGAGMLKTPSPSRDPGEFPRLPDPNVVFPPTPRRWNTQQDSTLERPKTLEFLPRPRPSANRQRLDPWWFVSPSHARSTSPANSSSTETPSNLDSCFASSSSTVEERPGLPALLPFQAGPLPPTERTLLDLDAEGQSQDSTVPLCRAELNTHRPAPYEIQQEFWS

| Structure (SMILES) | inhibition at 10 µM [1] | inhibition at 10 µM [2] | inhibition at 10 µM [3] | IC50 (MLK3) | IC50 (MLK1) |
| --- | --- | --- | --- | --- | --- |
| CCS(=O)(=O)N1CC[C@H](Nc2c(Br)cnc3[nH]c(-c4cc(C)n(-c5ccc(S(=O)(=O)N6CCOCC6)cc5)c4C)nc23)C1 [Example 10, (S)-6-bromo-2-(2,5-dimethyl-1-(4-(morpholinosulfonyl)phenyl)-1H-pyrrol-3-yl)-N-(1-(ethylsulfonyl)pyrrolidine-3-yl)-3H-imidazo[4,5-b]pyridine-7-amine] | > 50% | 10 to 50% | 10 to 50% | 7 nM |  |
| Cc1cc(-c2nc3c(Nc4cccc(S(N)(=O)=O)c4)c(Br)cnc3[nH]2)c(C)n1-c1cccc(C(=O)N2CCOCC2)c1 [Example 28, 3-((6-bromo-2-(2,5-dimethyl-1-(3-(morpholine-4-carbonyl)phenyl)-1H-pyrrol-3-yl)-3H-imidazo[4,5-b]pyridine-7-yl)amino)benzenesulfonamide] | 10 to 50% | < 10% | 10 to 50% | 57 nM |  |
| Cc1cc(-c2nc3c(Nc4cccc(S(N)(=O)=O)c4)c(Br)cnc3[nH]2)c(C)n1-c1ccc(S(=O)(=O)N2CCOCC2)cc1 [Example 29, 3-((6-bromo-2-(2,5-dimethyl-1-(4-(morpholinosulfonyl)phenyl)-1H-pyrrol-3-yl)-3H-imidazo[4,5-b]pyridine-7-yl)amino)benzenesulfonamide] | 10 to 50% | < 10% | 10 to 50% | 25 nM |  |
| Cc1cc(-c2nc3c(Nc4cccc(S(N)(=O)=O)c4)c(Br)cnc3[nH]2)c(C)n1-c1cccc(S(=O)(=O)N2CCOCC2)c1 [Example 30, 3-((6-bromo-2-(2,5-dimethyl-1-(3-(morpholinosulfonyl)phenyl)-1H-pyrrol-3-yl)-3H-imidazo[4,5-b]pyridine-7-yl)amino)benzenesulfonamide] | 10 to 50% | < 10% | 10 to 50% |  |  |
| Cc1cc(NS(C)(=O)=O)ccc1-n1c(C)cc(-c2nc3c(Nc4cccc(S(N)(=O)=O)c4)c(Br)cnc3[nH]2)c1C [Example 32, 3-((6-bromo-2-(2,5-dimethyl-1-(2-methyl-4-(methylsulfonamido)phenyl)-1H-pyrrol-3-yl)-3H-imidazo[4,5-b]pyridine-7-yl)amino)benzenesulfonamide] | 10 to 50% | 10 to 50% | 10 to 50% | 32 nM |  |
| Cc1c(NS(C)(=O)=O)cccc1-n1c(C)cc(-c2nc3c(Nc4cccc(S(N)(=O)=O)c4)c(Br)cnc3[nH]2)c1C [Example 34, 3-((6-bromo-2-(2,5-dimethyl-1-(2-methyl-3-(methylsulfonamido)phenyl)-1H-pyrrol-3-yl)-3H-imidazo[4,5-b]pyridine-7-yl)amino)benzenesulfonamide] | 10 to 50% | 10 to 50% | 10 to 50% | 41 nM |  |
| Cc1cc(-c2nc3c(Nc4cccc(S(N)(=O)=O)c4)c(Br)cnc3[nH]2)c(C)n1-c1ccc2c(c1)OCO2 [Example 41, 3-((2-(1-(benzo[d][1,3]dioxole-5-yl)-2,5-dimethyl-1H-pyrrol-3-yl)-6-bromo-3H-imidazo[4,5-b]pyridine-7-yl)amino)benzenesulfonamide] | 10 to 50% | 10 to 50% | 10 to 50% | 70 nM |  |
| COCCOc1cccc(-n2c(C)cc(-c3nc4ncc(Br)c(Nc5cccc(S(N)(=O)=O)c5)c4[nH]3)c2C)c1 [Example 42, 3-((6-bromo-2-(1-(3-(2-methoxyethoxy)phenyl)-2,5-dimethyl-1H-pyrrol-3-yl)-1H-imidazo[4,5-b]pyridine-7-yl)amino)benzenesulfonamide] | > 50% | 10 to 50% | > 50% | 83 nM |  |
| Cc1cc(-c2nc3ncc(Br)c(Nc4cccc(S(N)(=O)=O)c4)c3[nH]2)c(C)n1-c1ccccc1 [Example 43, 3-((6-bromo-2-(2,5-dimethyl-1-phenyl-1H-pyrrol-3-yl)-1H-imidazo[4,5-b]pyridine-7-yl)amino)benzenesulfonamide] | > 50% | 10 to 50% | 10 to 50% | 85 nM |  |
| COCCOc1ccc(Nc2c(Br)cnc3[nH]c(-c4cc(C)n(-c5cccc(S(N)(=O)=O)c5)c4C)nc23)cc1 [Example 46, 3-(3-(6-bromo-7-((4-(2-methoxyethoxy)phenyl)amino)-3H-imidazo[4,5-b]pyridine-2-yl)-2,5-dimethyl-1H-pyrrol-1-yl)benzenesulfonamide] | > 50% | 10 to 50% | 10 to 50% |  |  |
| CCS(=O)(=O)N1CC[C@H](Nc2c(Br)cnc3[nH]c(-c4cc(C)n(-c5ccc6c(c5)OCO6)c4C)nc23)C1 [Example 49, (S)-2-(1-(benzo[d][1,3]dioxole-5-yl)-2,5-dimethyl-1H-pyrrol-3-yl)-6-bromo-N-(1-(ethylsulfonyl)pyrrolidine-3-yl)-3H-imidazo[4,5-b]pyridine-7-amine] |  |  |  | 15 nM | 50 nM |
| CCS(=O)(=O)N1CC[C@H](Nc2ccnc3[nH]c(-c4cc(C)n(-c5cc(NS(C)(=O)=O)ccc5C)c4C)nc23)C1 [Example 50, N-(3-(3-(7-(((S)-1-(ethylsulfonyl)pyrrolidine-3-yl)amino)-3H-imidazo[4,5-b]pyridine-2-yl)-2,5-dimethyl-1H-pyrrol-1-yl)-4-methylphenyl) methanesulfonamide] |  |  |  | > 30000 nM | > 30000 nM |
| CCS(=O)(=O)N1CC[C@H](Nc2c(Br)cnc3[nH]c(-c4cc(C)n(-c5ccc(C(=O)NCCN(C)C)cc5)c4C)nc23)C1 [Example 62, (S)-4-(3-(6-bromo-7-((1-(ethylsulfonyl)pyrrolidine-3-yl)amino)-3H-imidazo[4,5-b]pyridine-2-yl)-2,5-dimethyl-1H-pyrrol-1-yl)-N-(2-(dimethylamino)ethyl)benzamide] |  |  |  | 17 nM |  |
| CCS(=O)(=O)N1CC[C@H](Nc2c(Br)cnc3[nH]c(-c4cc(C)n(-c5ccc(C(=O)N(C)CCN(C)C)cc5)c4C)nc23)C1 [Example 63, (S)-4-(3-(6-bromo-7-((1-(ethylsulfonyl)pyrrolidine-3-yl)amino)-3H-imidazo[4,5-b]pyridine-2-yl)-2,5-dimethyl-1H-pyrrol-1-yl)-N-(2-(dimethylamino)ethyl)-N-methylbenzamide] |  |  |  | 14 nM |  |
| CCS(=O)(=O)N1CC[C@H](Nc2c(Br)cnc3nc(-c4cc(C)n(-c5cccc(C(=O)NCCN(C)C)c5C)c4C)[nH]c23)C1 [Example 82, 3-(3-(6-bromo-7-(((S)-1-(ethylsulfonyl)pyrrolidine-3-yl)amino)-1H-imidazo[4,5-b]pyridine-2-yl)-2,5-dimethyl-1H-pyrrol-1-yl)-N-(2-(dimethylamino)ethyl)-2-methylbenzamide] |  |  |  | 14 nM |  |
| CCS(=O)(=O)N1CC[C@H](Nc2c(Br)cnc3nc(-c4cc(C)n(-c5cccc(NC(=O)CN(C)C)c5C)c4C)[nH]c23)C1 [Example 84, N-(3-(3-(6-bromo-7-(((S)-1-(ethylsulfonyl)pyrolidine-3-yl)amino)-1H-imidazo[4,5-b]pyridine-2-yl)-2,5-dimethyl-1H-pyrrol-1-yl)-2-methylphenyl)-2-(dimethylamino) acetamide] |  |  |  | 8 nM |  |
| CCS(=O)(=O)N1CC[C@H](Nc2c(Br)cnc3nc(-c4cc(C)n(-c5cccc(NC(=O)CN6CCOCC6)c5C)c4C)[nH]c23)C1 [Example 85, N-(3-(3-(6-bromo-7-(((S)-1-(ethylsulfonyl)pyrrolidine-3-yl)amino)-1H-imidazo[4,5-b]pyridine-2-yl)-2,5-dimethyl-1H-pyrrol-1-yl)-2-methylphenyl)-2-morpholinoacetamide] |  |  |  | 11 nM |  |
| CCS(=O)(=O)N1CC[C@H](Nc2c(Br)cnc3nc(-c4cc(C)n(-c5cccc(NC(=O)CCN(C)C)c5C)c4C)[nH]c23)C1 [Example 86, N-(3-(3-(6-bromo-7-(((S)-1-(ethylsulfonyl)pyrrolidine-3-yl)amino)-1H-imidazo[4,5-b]pyridine-2-yl)-2,5-dimethyl-1H-pyrrol-1-yl)-2-methylphenyl)-3-(dimethylamino) propanamide] |  |  |  | 7 nM | 15 nM |
| CCS(=O)(=O)N1CC[C@H](Nc2c(Br)cnc3nc(-c4cc(C)n(-c5cc(C(=O)N6CCN(C)CC6)ccc5C)c4C)[nH]c23)C1 [Example 92, (3-(3-(6-bromo-7-(((S)-1-(ethylsulfonyl)pyrrolidine-3-yl)amino)-1H-imidazo[4,5-b]pyridine-2-yl)-2,5-dimethyl-1H-pyrrol-1-yl)-4-methylphenyl) (4-methylpiperazine-1-yl) methanone] |  |  |  | 26 nM |  |
| CCS(=O)(=O)N1CC[C@H](Nc2c(Br)cnc3[nH]c(-c4cc(C)n(-c5ccc(C(=O)N6CCN(C)CC6)cc5C)c4C)nc23)C1 [Example 97, (4-(3-(6-bromo-7-(((S)-1-(ethylsulfonyl)pyrrolidine-3-yl)amino)-3H-imidazo[4,5-b]pyridine-2-yl)-2,5-dimethyl-1H-pyrrol-1-yl)-3-methylphenyl) (4-methylpiperazine-1-yl) methanone] |  |  |  | 20 nM |  |
